Literature values, collected in article PMC7766159, “Novel Psychoactive Phenethylamines: Impact on Genetic Material” (International Journal of Molecular Sciences, 2020).

Test system: primary rat hepatocyte
Set-up: method as in PMID 31468101
Conditions: after 24 h; cited from earlier work

In the case of `CNC(C)C(=O)c1cccc(C)c1` (stereo not shown) [Metaphedrone, 3-methylmethcathinone], the “concentration mediating oxidative stress” value is listed as 10 µM.
